ChEMBL document CHEMBL4392877, “Cytotoxic Pregnane Steroidal Glycosides from Chonemorpha megacalyx” (J Nat Prod, 2019)

Key:
PC-3 = test: Antiproliferative activity against human PC3 cells measured after 48 hrs by MTT assay; type: functional, cell-based; settings: PC-3, 48 h
A549 = test: Antiproliferative activity against human A549 cells measured after 48 hrs by MTT assay; type: functional, cell-based; settings: A549, 48 h
WI-38 = test: Cytotoxicity activity against human WI38 cells measured after 48 hrs by MTT assay; type: cell-based; settings: WI-38, 48 h
HepG2 = test: Antiproliferative activity against human HepG2 cells measured after 48 hrs by MTT assay; type: functional, cell-based; settings: HepG2, 48 h

| Structure (SMILES) | IC50 (PC-3) [µM] | IC50 (A549) [µM] | IC50 (HepG2) [µM] | IC50 (WI-38) [µM] |
| --- | --- | --- | --- | --- |
| CO[C@H]1C[C@@H](O[C@H]2[C@@H](O)C[C@H](O[C@H]3CC[C@@]4(C)[C@@H](CC[C@H]5C6=CC(=O)[C@@H]7[C@@H](C)OC(=O)[C@]67CC[C@@H]54)C3)O[C@@H]2C)O[C@H](C)[C@H]1O | > 50 | > 50 | > 50 | > 50 |
| C[C@H]1OC(=O)[C@]23CC[C@H]4[C@@H](C(C=O)=C5C[C@@H](O)CC[C@@]54C)[C@@]2(O)CC[C@H]13 | > 50 | > 50 | > 50 | > 50 |
| CO[C@H]1C[C@@H](O[C@@H]2[C@H](O)C[C@H](O[C@H]3CC[C@@]4(C)C(=CC[C@H]5C6=CC(=O)[C@@H]7[C@@H](C)OC(=O)[C@]67CC[C@@H]54)C3)O[C@@H]2C)O[C@H](C)[C@H]1O | > 50 | > 50 | > 50 | > 50 |
| CO[C@H]1C[C@H](O[C@H]2CC[C@@]3(C)C(=CC[C@@H]4[C@@H]3CC[C@]35C(=O)O[C@H](C)[C@H]3CC[C@]45O)C2)O[C@H](C)[C@H]1O[C@@H]1C[C@H](OC)[C@H](O[C@@H]2C[C@@H](OC)[C@H](O)[C@@H](C)O2)[C@@H](C)O1 | > 50 | > 50 | > 50 | > 50 |
| C[C@H]1O[C@@H](O[C@H]2CC[C@@]3(C)[C@@H](CC[C@H]4C5=CC(=O)[C@@H]6[C@@H](C)OC(=O)[C@]56CC[C@@H]43)C2)C[C@H](O)[C@@H]1O | > 50 | > 50 | > 50 | > 50 |
| C[C@H]1O[C@@H](O[C@H]2CC[C@@]3(C)C(=CC[C@H]4C5=CC(=O)[C@@H]6[C@@H](C)OC(=O)[C@]56CC[C@@H]43)C2)C[C@H](O)[C@@H]1O | > 50 | > 50 | > 50 | > 50 |
| CO[C@H]1C[C@H](O[C@H]2CC[C@@]3(C)C(=C(C=O)[C@@H]4[C@@H]3CC[C@]35C(=O)O[C@H](C)[C@H]3CC[C@]45O)C2)O[C@H](C)[C@H]1O | > 50 | > 50 | > 50 | > 50 |
| CO[C@H]1C[C@H](O[C@H]2CC[C@@]3(C)[C@@H](CC[C@H]4C5=CC(=O)[C@@H]6[C@@H](C)OC(=O)[C@]56CC[C@@H]43)C2)O[C@H](C)[C@H]1O[C@H]1C[C@@H](OC)[C@H](O)[C@@H](C)O1 | > 50 | > 50 | > 50 | > 50 |
| CO[C@H]1C[C@@H](O[C@H]2[C@@H](O)C[C@H](O[C@H]3CC[C@@]4(C)C(=CC[C@@H]5[C@@H]4CC[C@]46C(=O)O[C@H](C)[C@H]4CC[C@]56O)C3)O[C@@H]2C)O[C@H](C)[C@H]1O | > 50 | > 50 | > 50 | > 50 |
| CO[C@H]1C[C@@H](O[C@H]2[C@@H](OC)C[C@H](O[C@H]3CC[C@@]4(C)C(=CC[C@@H]5[C@@H]4CC[C@]46C(=O)O[C@H](C)[C@H]4CC[C@]56O)C3)O[C@@H]2C)O[C@H](C)[C@H]1O | > 50 | > 50 | > 50 | > 50 |

More lines, main results first:

| IC50 (PC-3) [µM] | IC50 (A549) [µM] | IC50 (HepG2) [µM] | Structure (SMILES) | IC50 (WI-38) [µM] |
| --- | --- | --- | --- | --- |
| > 50 | > 50 | > 50 | CO[C@H]1C[C@H](O[C@H]2CC[C@@]3(C)[C@@H](CC[C@H]4C5=CC(=O)[C@@H]6[C@@H](C)OC(=O)[C@]56CC[C@@H]43)C2)O[C@H](C)[C@H]1O | > 50 |
| > 50 | > 50 | > 50 | C[C@H]1OC(=O)[C@]23CC[C@@H]4[C@@]5(C)CC[C@H](O)CC5=CC[C@@]4(O)[C@@]2(O)CC[C@H]13 | > 50 |
| > 50 | > 50 | > 50 | C[C@H]1OC(=O)[C@]23CC[C@H]4[C@@H](CC[C@H]5C[C@@H](O)CC[C@@]54C)[C@@]2(O)CC[C@H]13 | > 50 |
| 3.6 | 2.4 | 2 | CO[C@H]1C[C@H](O[C@H]2CC[C@@]3(C)C(=CC[C@H]4C5=CC(=O)[C@@H]6[C@@H](C)OC(=O)[C@]56CC[C@@H]43)C2)O[C@H](C)[C@H]1O[C@@H]1C[C@@H](OC)[C@H](O)[C@@H](C)O1 | 5.5 |
| 0.5 to 0.8 | 0.5 to 0.8 | 0.5 to 0.8 | COc1cccc2c1C(=O)c1c(O)c3c(c(O)c1C2=O)C[C@@](O)(C(=O)CO)C[C@@H]3O[C@H]1C[C@H](N)[C@H](O)[C@H](C)O1 [DOXORUBICIN] |  |
